The test system of experiment [1] is KM mice. The experiment is described as follows: animal or person. As to conditions: for 2ED50 duration / 2ED50 recovery time / Quality of recovery: KM mice; for 2ED50 duration / 2ED50 recovery time: single tail vein injection at 2×ED50; for 2ED50 duration: time from disappearance to recovery of righting reflex; for 2ED50 recovery time: time from recovery of righting reflex to free crawling; for Quality of recovery: tail vein injection; for ED50: Mus musculus, KM mice (male, 18-22 g), injection via the tail vein, disappearance of righting reflex, read-out: ED50. Format: in vivo.

The subject of experiment [2] is SD rats. As to the kind of experiment: animal or person. Format: in vivo. The settings on record: for ED50: Rattus norvegicus, SD rats (male, 220-300 g), injection via the tail vein, disappearance of righting reflex, read-out: ED50; for 2ED50 duration / 2ED50 recovery time / Quality of recovery: SD rats; for 2ED50 duration / 2ED50 recovery time: single tail vein injection at 2×ED50; for 2ED50 duration: time from disappearance to recovery of righting reflex; for 2ED50 recovery time: time from recovery of righting reflex to free crawling; for Quality of recovery: tail vein injection.

SMILES strings stand for the structures.

With `Cc1cnc2n1-c1ccc(Br)cc1C(c1ccccn1)=N[C@H]2CCC(=O)OCOC(=O)OC(C)C(C)C` (stereo partly shown) [Example 51], in experiment [1], the 2ED50 duration is given as over 10 min; the 2ED50 recovery time is reported as 2.39 min; the Quality of recovery result is reported as “+++ (“+++” means 3-5 min)”; the ED50 (usually the dose at which the effect has come halfway, by size or by number of responders) was determined as 27.8 mg/kg. In addition, in experiment [2], the ED50 stood at 6.5 mg/kg, the “2ED50 duration” value amounted to 3.09 min, the 2ED50 recovery time came to 2.32 min and the Quality of recovery result is “+++ (“+++” means 3-5 min)”.

With `CCc1c(Br)cc2c(c1Cl)-n1c(C)cnc1[C@H](CCC(=O)OC(C)(CC)SC(=O)OC)N=C2c1ccccn1` (stereo partly shown) [Example 63], in experiment [1], the 2ED50 duration is listed as 3.14 min, the 2ED50 recovery time came out at 2.03 min, the Quality of recovery result was “++ (“++” means 1-3 min)” and the ED50 was 29.8 mg/kg. Moreover, in experiment [2], the ED50 is 3.5 mg/kg, the “2ED50 duration” value is 2.03 min, the 2ED50 recovery time is reported as 2.09 min and the Quality of recovery result is listed as “++ (“++” means 1-3 min)”.

Consider `Cc1cnc2n1-c1cc(Br)c(Br)cc1C(c1ccccn1)=N[C@H]2CCC(=O)OC1(C(=O)OOC2CC(Cl)C2)CC1` (stereo partly shown) [Example 64], for which, in experiment [1], the 2ED50 duration is 3.09 min, the 2ED50 recovery time is reported as 2.12 min, the Quality of recovery entry is recorded as “+++ (“+++” means 3-5 min)” and the ED50 came out at 24.1 mg/kg. In experiment [2], the ED50 stood at 2.7 mg/kg, the “2ED50 duration” value turned out to be 3.15 min, the 2ED50 recovery time is 2.18 min and the Quality of recovery result is “++ (“++” means 1-3 min)”.

Take `CCCOC(=O)C1(OC(=O)CC[C@@H]2N=C(c3ccccn3)c3c(cc(OC(F)(F)F)c(Cl)c3C)-n3c(C)cnc32)CC1` [Example 75]: in experiment [1], the 2ED50 duration came out at 3.53 min, the 2ED50 recovery time is 1.58 min, the Quality of recovery entry is recorded as “+++ (“+++” means 3-5 min)” and the ED50 came out at 29.1 mg/kg. For the same molecule, in experiment [2], the ED50 is 5.8 mg/kg, the “2ED50 duration” value came to 2.26 min, the 2ED50 recovery time came to 2.15 min and the Quality of recovery entry is on record as “+++ (“+++” means 3-5 min)”.

With `Cc1cnc2n1-c1cc(Br)c(Br)cc1C(c1ccccn1)=N[C@H]2CCC(=O)OCOC(=O)OC(C)(C)C` [Example 11], in experiment [1], the 2ED50 duration was 5.31 min, the 2ED50 recovery time was determined as 2.13 min, the Quality of recovery entry is recorded as “++ (“++” means 1-3 min)” and the ED50 turned out to be 22.4 mg/kg. Moreover, in experiment [2], the ED50 came to 5.9 mg/kg, the “2ED50 duration” value is given as 5.03 min, the 2ED50 recovery time amounted to 2.43 min and the Quality of recovery entry is recorded as “+++ (“+++” means 3-5 min)”.

The values are drawn from US12473291B2 (priority 2019, dated 2025).
